Test results reported in publication PMC9090141 (Pediatric blood & cancer, 2021).
Entries after “also recorded” stand apart in the source; their conditions may differ. Where a name gives a salt, the structure may show the parent alone.

Legend:
[1] = test system: recurrent or refractory solid and CNS tumors; assay: Radiographic antitumor response; assay type: in vivo, human
[2] = test system: pediatric tumor xenograft models; conditions: in vivo; cited from earlier work
[3] = 25 patients evaluable for response

## COc1cccc(OCCCN)c1-c1cc(Nc2cnc(C#N)cn2)n[nH]1 [prexasertib, Prexasertib mesylate monohydrate]
[1]; [3]
  best overall response (BOR): stable disease in 3 patients; also recorded: Three patients had a best overall response (BOR) of stable disease
  objective responses: no objective responses
[1]; patient with (anaplastic) ependymoma, dose level 2
  duration of stable disease: 3 cycles
[1]; patient with hepatocellular carcinoma, dose level 1
  duration of stable disease: 5 cycles
[1]; patient with undifferentiated sarcoma, dose level 3
  duration of stable disease: 5 cycles
[2]
  tolerability: well-tolerated
